In PubChem BioAssay (NCI):
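Assay format: 96-well plates, 48-hour exposure. TGI: concentration producing complete growth inhibition.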

Key:
Experiment in all cases: DTP human tumour cell line panel, 48 h
[1] = test system: HCT-15 colon
[2] = test system: SK-MEL-2 melanoma
[3] = test system: MCF7 breast
[4] = test system: SK-MEL-5 melanoma
[5] = test system: 786-0 renal
[6] = test system: TK-10 renal
[7] = test system: OVCAR-3 ovarian
[8] = test system: SNB-19 CNS
[9] = test system: PC-3 prostate
[10] = test system: MOLT-4 leukemia
[11] = test system: NCI-H226 lung
[12] = test system: HT29 colon
[13] = test system: NCI/ADR-RES ovarian
[14] = test system: OVCAR-8 ovarian
[15] = test system: CCRF-CEM leukemia
[16] = test system: ACHN renal
[17] = test system: IGROV1 ovarian
[18] = test system: SK-MEL-28 melanoma
[19] = test system: UACC-62 melanoma
[20] = test system: A498 renal
[21] = test system: M14 melanoma
[22] = test system: K-562 leukemia
[23] = test system: OVCAR-5 ovarian
[24] = test system: SNB-75 CNS
[25] = test system: SF-268 CNS
[26] = test system: RPMI-8226 leukemia
[27] = test system: NCI-H23 lung
[28] = test system: COLO 205 colon
[29] = test system: HOP-62 NSCLC
[30] = test system: OVCAR-4 ovarian
[31] = test system: HCT-116 colon
[32] = test system: NCI-H522 lung
[33] = test system: A549 NSCLC
[34] = test system: LOX IMVI melanoma
[35] = test system: EKVX NSCLC
[36] = test system: BT-549 breast
[37] = test system: MDA-MB-231 breast
[38] = test system: SF-539 CNS
[39] = test system: MALME-3M melanoma
[40] = test system: SK-OV-3 ovarian
[41] = test system: CAKI-1 renal
[42] = test system: HS 578T breast
[43] = test system: T-47D breast
[44] = test system: SR leukemia
[45] = test system: MDA-MB-435
[46] = test system: RXF 393 renal
[47] = test system: HOP-92 NSCLC
[48] = test system: UACC-257 melanoma
[49] = test system: UO-31 renal
[50] = test system: U251 CNS
[51] = test system: DU-145 prostate
[52] = test system: KM12 colon
[53] = test system: SN12C renal
[54] = test system: SW-620 colon
[55] = test system: HCC-2998 colon
[56] = test system: NCI-H460 lung
[57] = test system: SF-295 CNS
[58] = test system: MDA-N
[59] = test system: HL-60(TB) leukemia

CC(C)=CCC/C(C)=C/CC/C(C)=C/CC(CO)N(C)CC/C=C(\C)CCC=C(C)C (stereo unspecified) showed a TGI [1] of 14.8 µM, a TGI [2] of 28.6 µM and a TGI [3] of 4.8 µM. It also gave a TGI [4] of 23.2 µM, a TGI [5] of 4.89 µM and a TGI [6] of 22.7 µM. The TGI [7] was 27.8 µM, the TGI [8] was 21.5 µM and the TGI [9] was 20.2 µM. For the same compound, the TGI [10] was 6.69 µM, the TGI [11] was 28.4 µM and the TGI [12] was 14.4 µM. The TGI [13] was 16.4 µM, the TGI [14] was 20.2 µM and the TGI [15] was > 25.2 µM. It also gave a TGI [16] of 23.8 µM, a TGI [17] of 16 µM and a TGI [18] of 14.4 µM. The TGI [19] was 29.9 µM, the TGI [20] was 28.4 µM and the TGI [21] was 3.75 µM. It also gave a TGI [22] of 3.7 µM, a TGI [23] of 21.2 µM and a TGI [24] of 25 µM. It also gave a TGI [25] of 26.7 µM, a TGI [26] of 10.1 µM and a TGI [27] of 21.8 µM. For the same compound, the TGI [28] was 6.85 µM, the TGI [29] was 15 µM and the TGI [30] was 22.4 µM. It also gave a TGI [31] of 6.46 µM, a TGI [32] of 3.89 µM and a TGI [33] of 17.5 µM. For the same compound, the TGI [34] was 7.56 µM, the TGI [35] was 23.4 µM and the TGI [36] was 27.5 µM. The TGI [37] was 22.6 µM, the TGI [38] was 9.76 µM and the TGI [39] was 8.75 µM. It also gave a TGI [40] of 28.9 µM, a TGI [41] of 19.2 µM and a TGI [42] of 16.7 µM. It also gave a TGI [43] of 10.7 µM, a TGI [44] of 4.8 µM and a TGI [45] of 13.2 µM. For the same compound, the TGI [46] was 12.8 µM, the TGI [47] was 8.85 µM and the TGI [48] was 19.3 µM. The TGI [49] was 17.9 µM, the TGI [50] was 14.5 µM and the TGI [51] was 23.7 µM. The TGI [52] was 14.5 µM, the TGI [53] was 17.4 µM and the TGI [54] was 13.7 µM. For the same compound, the TGI [55] was 10.8 µM, the TGI [56] was 15.8 µM and the TGI [57] was 19.9 µM. The TGI [58] was 12.4 µM.
In the case of COc1ccc(C[C@H]2COC(=O)[C@@H]2Cc2cccc(Br)c2)cc1OC, the TGI [1] is reported as > 100 µM, the TGI [59] is reported as 38.6 µM and the TGI [2] is reported as 73.5 µM. For the same compound, the TGI [3] was 63.2 µM, the TGI [4] was 30.5 µM and the TGI [5] was > 100 µM. For the same compound, the TGI [6] was 82 µM, the TGI [7] was 60.4 µM and the TGI [8] was > 100 µM. For the same compound, the TGI [9] was 53.6 µM, the TGI [10] was 82.3 µM and the TGI [11] was > 100 µM. For the same compound, the TGI [12] was 60.8 µM, the TGI [13] was > 100 µM and the TGI [14] was 69.6 µM. The TGI [15] was 39.2 µM, the TGI [16] was 84.9 µM and the TGI [17] was > 100 µM. For the same compound, the TGI [18] was 68.4 µM, the TGI [19] was > 100 µM and the TGI [21] was 27.8 µM. The TGI [22] was > 100 µM, the TGI [23] was > 100 µM and the TGI [24] was 55.5 µM. The TGI [25] was > 100 µM, the TGI [26] was 56.1 µM and the TGI [27] was > 100 µM. The TGI [28] was 28.7 µM, the TGI [29] was > 100 µM and the TGI [30] was 58 µM. The TGI [31] was > 100 µM, the TGI [32] was 47.5 µM and the TGI [33] was > 100 µM. For the same compound, the TGI [34] was 14.6 µM, the TGI [35] was 97.1 µM and the TGI [36] was 61.2 µM. The TGI [37] was 64.9 µM, the TGI [38] was 41.4 µM and the TGI [39] was 47.6 µM. The TGI [40] was 66.4 µM, the TGI [41] was 30 µM and the TGI [42] was > 100 µM. For the same compound, the TGI [43] was > 100 µM, the TGI [44] was 32.8 µM and the TGI [45] was 56.9 µM. It also gave a TGI [46] of 77.6 µM, a TGI [47] of 48.3 µM and a TGI [48] of 56.2 µM. The TGI [49] was 82.3 µM, the TGI [50] was 73.4 µM and the TGI [51] was > 100 µM. The TGI [52] was 43.3 µM, the TGI [53] was > 100 µM and the TGI [54] was 83.3 µM. The TGI [55] was 66.4 µM, the TGI [56] was 67.2 µM and the TGI [57] was > 100 µM. For the same compound, the TGI [58] was 60.1 µM.
